pIC50: −log10 of the molar value.
What follows are compounds tested against Phosphatidylinositol 4-kinase beta (Homo sapiens, UniProt Q9UBF8) (assay: Kinase Glo Luminescent Kinase Assay).
From the text: PI 3-Kinase Alpha (A), Pb 3-Kinase Beta (B), Vps34 (C), PI 4-Kinase Beta (D):The luminescence-based ATP detection reagent KinaseGlo was obtained from Promega, (Cat. No. V6714, Lot No. 236161) through Catalys, Wallisellen, Switzerland. L-alpha-phosphatidylinositol (PI, liver, bovine) was obtained from Avanti Polar Lipid (Cat. No. 840042C, Lot#LPI-274), Phosphatidylinositol-4,5-bisphosphate (PIP(4,5)2) was also obtained from Avanti Polar Lipid (Cat. No. 840046X). L-α-Phosphatidylserine (PS) was obtained from Avanti Polar Lipid (Cat. No. 840032C), n-Octylglucoside from Avanti Polar Lipid (Cat. No. 10634425001). Luminescence is a well established readout to determine ATP concentrations and can thus be used to follow the activity of many kinases regardless of their substrate. The Kinase Glo Luminescent Kinase Assay (Promega, Madison/WI, USA) is a homogeneous HTS method of measuring kinase activity by quantifying the amount of ATP remaining in solution following a kinase reaction.

Chain of Phosphatidylinositol 4-kinase beta (Q9UBF8 whole entry): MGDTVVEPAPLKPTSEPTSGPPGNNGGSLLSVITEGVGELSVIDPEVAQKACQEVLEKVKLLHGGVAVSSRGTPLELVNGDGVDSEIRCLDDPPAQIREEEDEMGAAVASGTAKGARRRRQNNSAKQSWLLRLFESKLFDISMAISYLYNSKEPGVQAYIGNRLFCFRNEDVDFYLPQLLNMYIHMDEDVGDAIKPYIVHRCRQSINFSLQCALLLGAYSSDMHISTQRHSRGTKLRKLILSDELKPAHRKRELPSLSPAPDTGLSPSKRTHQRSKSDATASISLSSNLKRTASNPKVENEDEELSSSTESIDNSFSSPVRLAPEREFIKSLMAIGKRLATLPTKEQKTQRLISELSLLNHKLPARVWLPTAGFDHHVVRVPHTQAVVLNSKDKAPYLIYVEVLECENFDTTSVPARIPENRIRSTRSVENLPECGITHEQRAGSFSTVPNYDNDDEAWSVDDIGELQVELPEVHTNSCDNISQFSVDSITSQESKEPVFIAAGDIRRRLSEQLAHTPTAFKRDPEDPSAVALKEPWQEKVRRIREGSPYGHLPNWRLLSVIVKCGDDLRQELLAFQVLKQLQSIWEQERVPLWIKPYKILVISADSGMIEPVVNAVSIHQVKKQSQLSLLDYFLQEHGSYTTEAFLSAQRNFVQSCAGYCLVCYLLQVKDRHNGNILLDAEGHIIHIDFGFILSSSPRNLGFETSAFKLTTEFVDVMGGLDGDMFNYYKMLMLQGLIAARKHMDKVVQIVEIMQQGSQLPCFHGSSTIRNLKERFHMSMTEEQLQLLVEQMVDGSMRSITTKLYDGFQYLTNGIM

`Cc1ccc(S(=O)(=O)NC2CC3(CC(O)C3)C2)cc1-c1cncc(-c2cn(C)nc2C)n1` (centres undefined) [US9862711, Example 6] and `Cc1ccc(S(=O)(=O)NC[C@H]2C[C@@H](O)C2)cc1-c1cncc(-c2cn(C)nc2C)n1` [US9862711, Example 7] cannot be ordered by pIC50: less than 5.00 for the first, less than 5.00 for the second.

`Cc1ccc(S(=O)(=O)N[C@H]2CC[C@H](O)CC2)cc1-c1cncc(-c2csc(CN3CCOCC3)c2)n1` [US9862711, Example 12] and `Cc1cc(-c2cncc(-c3cc(S(=O)(=O)NC[C@H]4C[C@@H](O)C4)ccc3C)n2)n(C)n1` [US9862711, Example 13] cannot be ordered by pIC50: less than 5.04 for the first, less than 5.02 for the second.
